Data set [1] deals with T1, Cytochrome P450 3A5 (Homo sapiens, UniProt P20815). The data set can be described thus: Mechanism based inhibition of human cytochrome P450 3A5, partition ratio. Type of data set: ADME.
In another data set the target is CYP3A5 (Homo sapiens, UniProt P20815). The data set can be described thus: (§1) Mechanism based inhibition of human cytochrome P450 3A5. Type of data set: ADME. The note with it: human.
Data set [2] addresses T1, Cytochrome P450 3A5. The description is as §1. Type of data set: ADME.
Data set [3] deals with T2, Cytochrome P450 3A4 (Homo sapiens, UniProt P08684). In words: Mechanism based inhibition of human cytochrome P450 3A4 measured by testosterone 6-beta hydroxylation. The class given is ADME.
T2 sequence (P08684 whole entry): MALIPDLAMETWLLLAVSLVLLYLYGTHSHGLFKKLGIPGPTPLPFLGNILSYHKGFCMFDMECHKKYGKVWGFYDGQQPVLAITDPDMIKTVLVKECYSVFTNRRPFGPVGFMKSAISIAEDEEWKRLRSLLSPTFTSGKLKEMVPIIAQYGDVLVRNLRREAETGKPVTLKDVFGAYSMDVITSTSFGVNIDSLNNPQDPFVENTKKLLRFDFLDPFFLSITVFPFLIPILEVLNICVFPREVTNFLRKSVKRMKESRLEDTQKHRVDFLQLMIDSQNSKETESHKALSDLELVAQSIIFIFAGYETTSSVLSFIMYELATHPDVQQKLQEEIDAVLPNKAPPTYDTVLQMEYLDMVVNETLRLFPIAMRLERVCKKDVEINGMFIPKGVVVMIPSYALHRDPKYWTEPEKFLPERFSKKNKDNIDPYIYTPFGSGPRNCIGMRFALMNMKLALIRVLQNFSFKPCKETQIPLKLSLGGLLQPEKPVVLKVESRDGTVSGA
Data set [4] has as its target T3, Cytochrome P450 2B6 (Homo sapiens, UniProt P20813).
T3 sequence (P20813 whole entry): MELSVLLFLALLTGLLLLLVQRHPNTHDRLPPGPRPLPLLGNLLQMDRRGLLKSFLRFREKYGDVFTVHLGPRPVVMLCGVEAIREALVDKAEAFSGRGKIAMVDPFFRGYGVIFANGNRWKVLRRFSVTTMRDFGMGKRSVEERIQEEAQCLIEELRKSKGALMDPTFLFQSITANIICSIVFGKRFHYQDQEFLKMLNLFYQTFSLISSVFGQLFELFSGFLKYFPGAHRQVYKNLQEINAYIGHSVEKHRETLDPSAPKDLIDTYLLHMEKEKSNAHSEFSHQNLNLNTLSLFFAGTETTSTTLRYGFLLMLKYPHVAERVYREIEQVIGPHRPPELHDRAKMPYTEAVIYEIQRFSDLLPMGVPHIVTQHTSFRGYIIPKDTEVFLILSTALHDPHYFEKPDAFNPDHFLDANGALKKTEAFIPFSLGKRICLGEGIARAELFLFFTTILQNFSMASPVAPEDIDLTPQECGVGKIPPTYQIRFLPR
The data set can be described thus: Mechanism based inhibition of human cytochrome P450 2B6, partition ratio. The class given is ADME.

In data set [5] the target is T3, Cytochrome P450 2B6. In words: (§2) Mechanism based inhibition of human cytochrome P450 2B6. Type of data set: ADME.
For another data set, the target named is T4, CYP2B6 (Homo sapiens, UniProt P20813).
T4 sequence (P20813 whole entry): T3 sequence (P20813 whole entry)
The description is as §2. The note with it: human. The class given is ADME.

The target of a further data set is T5, CYP2B1 (Rattus norvegicus, UniProt P00176).
T5 sequence (P00176 whole entry): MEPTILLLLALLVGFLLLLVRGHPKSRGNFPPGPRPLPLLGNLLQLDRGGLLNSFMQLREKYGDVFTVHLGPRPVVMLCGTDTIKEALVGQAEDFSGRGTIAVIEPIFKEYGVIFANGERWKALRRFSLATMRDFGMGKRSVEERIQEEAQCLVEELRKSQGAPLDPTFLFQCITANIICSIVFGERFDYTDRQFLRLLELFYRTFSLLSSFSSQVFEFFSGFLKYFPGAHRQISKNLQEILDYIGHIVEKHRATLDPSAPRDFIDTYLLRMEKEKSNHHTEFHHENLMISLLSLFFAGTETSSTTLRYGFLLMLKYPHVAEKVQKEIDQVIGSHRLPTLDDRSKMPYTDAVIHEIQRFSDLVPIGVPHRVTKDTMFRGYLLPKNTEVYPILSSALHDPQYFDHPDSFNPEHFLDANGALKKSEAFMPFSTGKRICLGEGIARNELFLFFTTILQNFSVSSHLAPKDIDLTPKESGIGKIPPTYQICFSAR
In words: (§3) Mechanism based inhibition of rat cytochrome P450 2B1. The class given is ADME. The settings on record: rat.

Data set [6] has as its target T6, Cytochrome P450 2B1 (Rattus norvegicus, UniProt P00176).
T6 sequence (P00176 whole entry): T5 sequence (P00176 whole entry)
The data set is described as §3. The class given is ADME.

For the next data set, the target named is Cytochrome P450 2E1 (Homo sapiens, UniProt P05181). In words: (§4) Mechanism based inhibition of human cytochrome P450 2E1 measured in vivo. The class given is ADME, organism-based.
Sequence of Cytochrome P450 2E1 (P05181 whole entry): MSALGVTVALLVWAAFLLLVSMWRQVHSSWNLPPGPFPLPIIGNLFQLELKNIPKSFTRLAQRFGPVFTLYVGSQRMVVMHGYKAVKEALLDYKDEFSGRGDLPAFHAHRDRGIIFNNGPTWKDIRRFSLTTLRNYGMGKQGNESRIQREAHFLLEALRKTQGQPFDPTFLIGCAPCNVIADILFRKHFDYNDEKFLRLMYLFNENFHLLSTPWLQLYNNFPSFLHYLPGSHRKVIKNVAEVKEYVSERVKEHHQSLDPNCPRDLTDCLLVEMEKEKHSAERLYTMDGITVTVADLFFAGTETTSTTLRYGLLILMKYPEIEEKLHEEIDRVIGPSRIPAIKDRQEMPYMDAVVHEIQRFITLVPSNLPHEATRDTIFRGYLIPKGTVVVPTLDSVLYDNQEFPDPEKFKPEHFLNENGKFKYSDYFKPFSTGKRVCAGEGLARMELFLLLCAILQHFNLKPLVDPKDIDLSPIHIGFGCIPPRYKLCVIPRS
In another data set the target is CYP2E1 (Homo sapiens, UniProt P05181). The data set is described as §4. The settings on record: human, in vivo. Type of data set: ADME, organism-based.
Sequence of CYP2E1 (P05181 whole entry): as above
For data set [7], the target named is T2, Cytochrome P450 3A4. The data set can be described thus: Mechanism based inhibition of human cytochrome P450 3A4 measured by testosterone 6-beta hydroxylation and erythromycin N-demethylation. The class given is ADME.
In another data set the target is T7, Cytochrome P450 2B4 (Oryctolagus cuniculus, UniProt P00178).
T7 sequence (P00178 whole entry): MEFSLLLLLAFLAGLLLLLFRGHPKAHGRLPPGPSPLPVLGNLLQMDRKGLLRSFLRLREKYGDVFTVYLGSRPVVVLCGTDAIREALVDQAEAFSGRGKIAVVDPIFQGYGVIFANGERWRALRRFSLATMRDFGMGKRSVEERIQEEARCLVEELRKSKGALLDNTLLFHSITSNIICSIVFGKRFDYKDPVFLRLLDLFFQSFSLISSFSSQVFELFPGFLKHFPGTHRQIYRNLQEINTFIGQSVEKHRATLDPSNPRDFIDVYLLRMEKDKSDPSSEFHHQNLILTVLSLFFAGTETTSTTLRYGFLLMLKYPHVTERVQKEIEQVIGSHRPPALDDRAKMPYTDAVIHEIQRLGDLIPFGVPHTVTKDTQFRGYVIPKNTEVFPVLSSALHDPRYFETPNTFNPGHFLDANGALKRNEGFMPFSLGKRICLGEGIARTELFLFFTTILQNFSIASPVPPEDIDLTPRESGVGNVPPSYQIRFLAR
In words: (§5) Mechanism based inhibition of rabbit cytochrome P450 2B4. Type of data set: ADME.

The target in another data set is T8, CYP2B4 (Oryctolagus cuniculus, UniProt P00178).
T8 sequence (P00178 whole entry): T7 sequence (P00178 whole entry)
The data set is described as §5. The class given is ADME. The note with it: rabbit.

The target of the next data set is T9, Cytochrome P450 2A6 (Homo sapiens, UniProt P11509).
T9 sequence (P11509 whole entry): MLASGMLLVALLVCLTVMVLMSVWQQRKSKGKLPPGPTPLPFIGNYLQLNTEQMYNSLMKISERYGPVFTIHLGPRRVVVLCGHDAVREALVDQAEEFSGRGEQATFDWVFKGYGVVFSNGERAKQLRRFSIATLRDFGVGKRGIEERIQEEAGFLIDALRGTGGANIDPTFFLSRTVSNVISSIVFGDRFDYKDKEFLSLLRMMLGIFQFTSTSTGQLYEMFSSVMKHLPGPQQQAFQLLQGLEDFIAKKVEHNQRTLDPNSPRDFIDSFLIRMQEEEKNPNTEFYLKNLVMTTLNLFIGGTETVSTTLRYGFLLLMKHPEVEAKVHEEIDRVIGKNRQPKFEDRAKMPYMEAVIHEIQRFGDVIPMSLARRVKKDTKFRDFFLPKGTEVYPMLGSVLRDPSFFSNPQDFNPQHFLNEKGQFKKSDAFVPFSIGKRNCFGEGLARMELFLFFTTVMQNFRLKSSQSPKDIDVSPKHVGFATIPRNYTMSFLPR
In words: (§6) Mechanism based inhibition of human cytochrome P450 2A6 measured by coumarin 7-hydroxylation. Type of data set: ADME.

Another data set has as its target T10, CYP2A6 (Homo sapiens, UniProt P11509).
T10 sequence (P11509 whole entry): T9 sequence (P11509 whole entry)
The description is as §6. Type of data set: ADME. The note with it: human, probe coumarin (7-hydroxylation).

Data set [8] addresses T3, Cytochrome P450 2B6. The data set can be described thus: Mechanism based inhibition of human cytochrome P450 2B6, partition ratio (value refers to P450 expressed in baculovirus infected insect cells). Type of data set: ADME.
For data set [9], the target named is T6, Cytochrome P450 2B1. The data set can be described thus: Mechanism based inhibition of rat cytochrome P450 2B1 measured by 7-EFC O-deethylation.
Data set [10] deals with T3, Cytochrome P450 2B6. The data set can be described thus: (§7) Mechanism based inhibition of human cytochrome P450 2B6 measured by 7-EFC O-deethylation.
The target in data set [11] is T3, Cytochrome P450 2B6. The description is as §7. The source holds these as a separate data set.
The target of data set [12] is T2, Cytochrome P450 3A4. In words: Mechanism based inhibition of human cytochrome P450 3A4 measured by midazolam hydroxylation in vivo. The class given is ADME, organism-based.
In data set [13] the target is T11, Cytochrome P450 3A6 (Oryctolagus cuniculus, UniProt P11707). In words: Mechanism based inhibition of rabbit cytochrome P450 3A6 measured by testosterone and progesterone 6-beta hydroxylation. The class given is ADME.
T11 sequence (P11707 whole entry): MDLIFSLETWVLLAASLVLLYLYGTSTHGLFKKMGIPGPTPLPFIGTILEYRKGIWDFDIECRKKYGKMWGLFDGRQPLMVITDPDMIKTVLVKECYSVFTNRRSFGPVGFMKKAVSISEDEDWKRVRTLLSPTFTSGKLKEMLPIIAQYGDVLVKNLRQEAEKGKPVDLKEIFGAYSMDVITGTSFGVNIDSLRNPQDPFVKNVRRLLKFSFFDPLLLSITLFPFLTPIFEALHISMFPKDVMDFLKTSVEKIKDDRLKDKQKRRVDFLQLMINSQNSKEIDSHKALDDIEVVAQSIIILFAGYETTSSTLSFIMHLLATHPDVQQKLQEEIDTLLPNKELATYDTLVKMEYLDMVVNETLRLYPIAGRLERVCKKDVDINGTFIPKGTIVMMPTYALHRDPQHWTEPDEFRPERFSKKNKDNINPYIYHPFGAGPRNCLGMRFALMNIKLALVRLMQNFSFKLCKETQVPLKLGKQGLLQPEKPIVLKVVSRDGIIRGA
Data set [14] deals with T11, Cytochrome P450 3A6. The data set can be described thus: Mechanism based inhibition of rabbit cytochrome P450 3A6, partition ratio. The class given is ADME.
Data set [15] has as its target T6, Cytochrome P450 2B1. The data set can be described thus: Mechanism based inhibition of rat cytochrome P450 2B1 measured by 7-ethoxyresorufin O-deethylation (EROD). The class given is ADME.
The target in data set [16] is T3, Cytochrome P450 2B6. The data set can be described thus: Mechanism based inhibition of human cytochrome P450 2B6, partition ratio (value refers to P450 expressed in lymphoblastoid cells). The class given is ADME, cell-based.

SMILES strings stand for the structures. Several values for one entry are separate records, joined by “and”; a condition that tells them apart may be missing. Equal entries are not always repeated.

Usually kinact stands for the maximal first-order rate at which the target is inactivated.

T1 sequence (P20815 whole entry): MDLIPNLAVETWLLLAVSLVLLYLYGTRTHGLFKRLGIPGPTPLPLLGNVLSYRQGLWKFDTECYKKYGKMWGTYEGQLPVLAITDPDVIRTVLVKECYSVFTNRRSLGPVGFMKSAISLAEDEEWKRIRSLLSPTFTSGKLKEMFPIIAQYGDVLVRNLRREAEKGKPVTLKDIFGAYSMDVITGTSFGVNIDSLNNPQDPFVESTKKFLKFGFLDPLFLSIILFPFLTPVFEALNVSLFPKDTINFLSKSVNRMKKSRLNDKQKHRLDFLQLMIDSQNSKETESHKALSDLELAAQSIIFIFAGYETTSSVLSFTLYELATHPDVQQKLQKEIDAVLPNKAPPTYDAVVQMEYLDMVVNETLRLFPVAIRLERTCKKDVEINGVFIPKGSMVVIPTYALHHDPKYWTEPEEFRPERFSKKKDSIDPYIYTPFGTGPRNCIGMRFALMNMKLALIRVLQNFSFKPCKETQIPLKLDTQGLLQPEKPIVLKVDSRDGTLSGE
Sequence of CYP3A5 (P20815 whole entry): as above

Take `CC(C)=CCC/C(C)=C/COc1c2ccoc2cc2oc(=O)ccc12` [BERGAMOTTIN]: the figures for the Partition ratio at Cytochrome P450 3A5 [1] and at Cytochrome P450 2B6 [4] were 20 and 2, respectively. The maximal inactivation rate constant (kinact) is 0.00075 s⁻¹ at CYP3A5; 0.00145 s⁻¹ at CYP2B6; 0.000817 s⁻¹ at CYP2B1; 0.00133 s⁻¹ on CYP2E1; 0.00113 s⁻¹ at CYP2B4. Further, the Ki at Cytochrome P450 3A5 [2] is 20 µM; at Cytochrome P450 2B6 [5], 5.2 µM; on Cytochrome P450 2B1 [6], 2.4 µM; at Cytochrome P450 2E1, 40 µM; at Cytochrome P450 3A4 [7], 7.7 µM; at Cytochrome P450 2B4 it was 2.8 µM. Besides, on Cytochrome P450 3A4 [3], the mechanism based inhibition result is “Cytochrome P450 mechanistic inhibitor: PMID 10859150”.
On Cytochrome P450 2A6, `COc1c2ccoc2cc2oc(=O)ccc12` [BERGAPTEN] returned a Ki of 12 µM. The maximal inactivation rate constant (kinact) on CYP2A6 was 0.006 s⁻¹. In addition, the Partition ratio at Cytochrome P450 2B6 [8] came out at 57.4.
`C#C[C@]1(O)CC[C@H]2[C@@H]3CCc4cc(O)ccc4[C@H]3CC[C@@]21C` [ETHINYL ESTRADIOL]: the values for the Ki on Cytochrome P450 2B1 [9], on Cytochrome P450 2B6 [10] and on Cytochrome P450 2B6 [11] were 11 µM, 0.8 µM and 0.9 µM, respectively. Further, the mechanism based inhibition entry on Cytochrome P450 3A4 [12] was “Cytochrome P450 mechanistic inhibitor: PMID 11012556”.
In the case of `O=c1cc(-c2ccccc2)oc2c1ccc1ccccc12` [ALPHA-NAPHTHOFLAVONE], at Cytochrome P450 3A4 [3], the mechanism based inhibition entry is reported as “Cytochrome P450 mechanistic inhibitor: PMID 11640917”. The Ki at Cytochrome P450 3A6 [13] stood at 80.1 µM. For the same compound, on Cytochrome P450 3A6 [14], the Partition ratio is 21.
Regarding `C#CCCCc1ccccc1`, the mechanism based inhibition result on Cytochrome P450 2B1 [15] is “Cytochrome P450 mechanistic inhibitor: PMID 9760279”.
In the case of `O=c1ccc2cc3ccoc3cc2o1` [PSORALEN], the Ki on Cytochrome P450 2A6 amounted to 0.6 µM. Moreover, the kinact at CYP2A6 is 0.005 s⁻¹. At Cytochrome P450 2B6 [16], the Partition ratio is 46 and 71.2.

Values taken from ChEMBL document CHEMBL1743341, “Cytochrome p450 enzymes mechanism based inhibitors: common sub-structures and reactivity” (Curr Drug Metab, 2005).
